Series [1] is described as follows: Incidence of cardiac dysrhythmia in Truven Health MarketScan claims data. In kind it is in vivo, human. Particulars: for CD incidence / Incidence Rate per 1,000 Years: Table 2, MarketScan 2009-2014; for CD incidence: cardiac dysrhythmia cases; for Incidence Rate per 1,000 Years: cardiac dysrhythmia; for Delta from Background Rate: in vivo.
A short description of series [2]: FAERS disproportionality analysis. Particulars: for EB05 VA / EB05 VT / EB05 TdP: FAERS Nov 1997 to March 31, 2015, EB05 > 2 = signal; for EB05 VA: ventricular arrhythmia; for EB05 VT: ventricular tachycardia; for EB05 TdP: torsades de pointes; for EB05: Table 2, values correspond to EB05 TdP of Table 1.
The conditions of series [3]: cited from earlier work; for CredibleMeds Classification: Table 1, as of last access May 22, 2018; for CredibleMeds: Table 2.
The conditions of series [4]: Table 1; cited from earlier work.

Turning to `O=C(NCC1CCCCN1)c1cc(OCC(F)(F)F)ccc1OCC(F)(F)F` (stereo not drawn) [FLECAINIDE], the “rate of CD incidence, each patient subgroup” value in series [1] (compared with the aggregated value, subgroups by age, gender, comorbidity index) is greater than 23.0. Further, in series [2], the “EB05 VA” value worked out at 4.123 and the “EB05 VT” value was 20.567.
As for `CN1CCN(C2=Nc3cc(Cl)ccc3Nc3ccccc32)CC1` [CLOZAPINE], in series [2], the “EB05 TdP” value is 0.191, the “EB05 VA” value was found to be 0.372 and the “EB05 VT” value stood at 0.291.
Consider `Cc1nccn1CC1CCc2c(c3ccccc3n2C)C1=O` (stereo not drawn) [ONDANSETRON], for which the “CredibleMeds Classification” value in series [3] is recorded as “risk of TdP”. For the same compound, in series [4], the “CiPA Classification” value was “intermediate”. In series [2], the “EB05 TdP” value was determined as 15.333, the “EB05 VA” value was 1.281 and the “EB05 VT” value worked out at 6.395.
As to `COc1ccc(CCN(C)CCCC(C#N)(c2ccc(OC)c(OC)c2)C(C)C)cc1OC` (stereo not drawn), in series [2], the “EB05 TdP” value was 3.426, the “EB05 VA” value was determined as 2.104 and the “EB05 VT” value is listed as 2.381.
`CN(CCOc1ccc(NS(C)(=O)=O)cc1)CCc1ccc(NS(C)(=O)=O)cc1` [DOFETILIDE]: the CredibleMeds result in series [3] was “risk of TdP”. Moreover, in series [1], the CD incidence is 2,749, the “Incidence Rate per 1,000 Years” value is listed as 157.58 per 1,000 Years and the “Delta from Background Rate” value worked out at 134.58. For the same compound, in series [2], the “EB05 TdP” value worked out at 20.983, the “EB05 VA” value is on record as 6.235 and the EB05 was 20.98.
For the compound `CCCCc1oc2ccccc2c1C(=O)c1cc(I)c(OCCN(CC)CC)c(I)c1` [AMIODARONE], the CredibleMeds entry in series [3] was “risk of TdP”. Further, in series [1], the CD incidence is on record as 21,788, the “Incidence Rate per 1,000 Years” value was 162.2 per 1,000 Years and the “Delta from Background Rate” value was determined as 139.2. Besides, the EB05 in series [2] was 21.35.
`COc1ccc([C@@H]2Sc3ccccc3N(CCN(C)C)C(=O)[C@@H]2OC(C)=O)cc1` [DILTIAZEM]: in series [2], the “EB05 TdP” value turned out to be 2.62, the “EB05 VA” value amounted to 0.925 and the “EB05 VT” value worked out at 1.443.
Turning to `CN(C)CCCN1c2ccccc2Sc2ccc(Cl)cc21` [CHLORPROMAZINE], the “CredibleMeds Classification” value in series [3] is listed as “risk of TdP”. Moreover, the “CiPA Classification” value in series [4] is reported as “intermediate”. In addition, in series [2], the “EB05 TdP” value is given as 5.483, the “EB05 VA” value amounted to 0.679 and the “EB05 VT” value stood at 1.78.
`Cc1nc2n(c(=O)c1CCN1CCC(c3noc4cc(F)ccc34)CC1)CCCC2O` (stereo not drawn) [PALIPERIDONE]: in series [3], the CredibleMeds entry is on record as “possible risk of TdP”. In series [1], the CD incidence was 119, the “Incidence Rate per 1,000 Years” value was 10.13 per 1,000 Years and the “Delta from Background Rate” value is given as −12.87. In addition, the EB05 in series [2] is on record as 0.57.
On to `CCOC(=O)N1CCC(=C2c3ccc(Cl)cc3CCc3cccnc32)CC1` [LORATADINE], for which the “CiPA Classification” value in series [4] is “very low”. Also, in series [1], the CD incidence is 2,016, the “Incidence Rate per 1,000 Years” value is given as 13.07 per 1,000 Years and the “Delta from Background Rate” value is listed as −9.93. Moreover, in series [2], the “EB05 TdP” value stood at 4.873, the “EB05 VA” value was determined as 0.583, the “EB05 VT” value was 3.043 and the EB05 was found to be 4.87.
As to `C=C[C@H]1C[N@@]2CC[C@H]1C[C@@H]2[C@@H](O)c1ccnc2ccc(OC)cc12` [QUINIDINE], the CredibleMeds entry in series [3] is on record as “risk of TdP”. Also, in series [1], the CD incidence was 421, the “Incidence Rate per 1,000 Years” value was 87.75 per 1,000 Years and the “Delta from Background Rate” value is listed as 64.75. In series [2], the “EB05 TdP” value turned out to be 35.667, the “EB05 VA” value is reported as 2.768, the “EB05 VT” value was determined as 12.296 and the EB05 is 35.67.
As to `O=C(CCCN1CC=C(n2c(=O)[nH]c3ccccc32)CC1)c1ccc(F)cc1` [DROPERIDOL], in series [3], the “CredibleMeds Classification” value is recorded as “risk of TdP”. The “CiPA Classification” value in series [4] was “intermediate”. In series [2], the “EB05 TdP” value is 19.454, the “EB05 VA” value was 2.899 and the “EB05 VT” value is recorded as 4.564.
Consider `CC(C)(C)c1ccc(C(O)CCCN2CCC(C(O)(c3ccccc3)c3ccccc3)CC2)cc1` (stereo not drawn) [TERFENADINE], for which, in series [3], the “CredibleMeds Classification” value is given as “risk of TdP”. Besides, the “CiPA Classification” value in series [4] is recorded as “intermediate”. For the same compound, in series [2], the “EB05 TdP” value is reported as 24.417, the “EB05 VA” value stood at 3.085 and the “EB05 VT” value stood at 9.397.
Regarding `COC(=O)C1=C(C)NC(C)=C(C(=O)OC)C1c1ccccc1[N+](=O)[O-]` [NIFEDIPINE], the “EB05 VT” value in series [2] stood at 0.42.
Consider `O=c1[nH]c2ccccc2n1C1CCN(CCCC(c2ccc(F)cc2)c2ccc(F)cc2)CC1` [PIMOZIDE], for which the “CredibleMeds Classification” value in series [3] is given as “risk of TdP”. Also, the “CiPA Classification” value in series [4] is reported as “intermediate”. In series [2], the “EB05 TdP” value was found to be 17.093, the “EB05 VA” value was found to be 0.25 and the “EB05 VT” value is recorded as 2.332.
On to `CC(C)NCC(O)c1ccc(NS(C)(=O)=O)cc1` (racemic) [DL-SOTALOL], for which, in series [1], the CD incidence is listed as 13,186, the “Incidence Rate per 1,000 Years” value is listed as 124.65 per 1,000 Years and the “Delta from Background Rate” value is 101.65. For the same compound, in series [2], the “EB05 TdP” value is 70.355, the “EB05 VA” value is listed as 14.276, the “EB05 VT” value worked out at 18.029 and the EB05 was 70.36.
Consider `O=c1[nH]c2ccccc2n1CCCN1CCC(n2c(=O)[nH]c3cc(Cl)ccc32)CC1` [DOMPERIDONE], for which, in series [2], the “EB05 TdP” value was determined as 18.85, the “EB05 VA” value is listed as 1.455 and the “EB05 VT” value was 1.468.
Turning to `COc1ccc(CCN2CCC(Nc3nc4ccccc4n3Cc3ccc(F)cc3)CC2)cc1` [ASTEMIZOLE], the “CredibleMeds Classification” value in series [3] was “risk of TdP”. In addition, the “CiPA Classification” value in series [4] is “intermediate”. In series [2], the “EB05 TdP” value was determined as 18.549, the “EB05 VA” value was found to be 1.965 and the “EB05 VT” value is reported as 15.499.
`CN(C)CC(c1ccc(O)cc1)C1(O)CCCCC1` (stereo not drawn) [DESVENLAFAXINE]: in series [1], the CD incidence was 2,222, the “Incidence Rate per 1,000 Years” value is 8.26 per 1,000 Years and the “Delta from Background Rate” value is given as −14.74. Further, the EB05 in series [2] was found to be 0.13.
The corresponding values for `CCCNCC(O)COc1ccccc1C(=O)CCc1ccccc1` (stereo not drawn) [PROPAFENONE] are 6,643, 135.17 per 1,000 Years, 112.17 and 3.38.
`CC/C(=C(\c1ccccc1)c1ccc(OCCN(C)C)cc1)c1ccccc1` [TAMOXIFEN]: in series [2], the “EB05 TdP” value is reported as 0.077, the “EB05 VA” value was determined as 0.06 and the “EB05 VT” value is 0.172.
Turning to `CCC(=O)C(CC(C)N(C)C)(c1ccccc1)c1ccccc1` (stereo not drawn) [METHADONE], the CredibleMeds entry in series [3] is on record as “risk of TdP”. Besides, in series [1], the CD incidence was 1,662, the “Incidence Rate per 1,000 Years” value is on record as 19.73 per 1,000 Years and the “Delta from Background Rate” value is −3.27. Also, in series [2], the “EB05 TdP” value was found to be 36.408, the “EB05 VA” value came out at 1.87, the “EB05 VT” value is reported as 3.998 and the EB05 was determined as 36.41.
For `COCCc1ccc(OCC(O)CNC(C)C)cc1` (stereo not drawn) [METOPROLOL], in series [2], the “EB05 TdP” value worked out at 3.176, the “EB05 VA” value stood at 1.955 and the “EB05 VT” value is reported as 3.318.

The values are drawn from PMC7659582 (Cell Reports Medicine, 2020).
